According to ChEMBL document CHEMBL6153062, “Design, Synthesis, and Unprecedented Interactions of Covalent Dipeptide-Based Inhibitors of SARS-CoV-2 Main Protease and Its Variants Displaying Potent Antiviral Activity” (J Med Chem, 2025):

Columns and labels:
[1] = Inhibition of SARS-CoV-2 MPro L50F/E166A/L167F mutant; design: species or system Severe acute respiratory syndrome coronavirus 2
[2] = Inhibition of SARS-CoV-2 MPro S144F mutant; design: species or system Severe acute respiratory syndrome coronavirus 2
[3] = Inhibition of SARS-CoV-2 MPro M165T mutant; design: species or system Severe acute respiratory syndrome coronavirus 2
[4] = Inhibition of SARS-CoV-2 MPro S144Y mutant; design: species or system Severe acute respiratory syndrome coronavirus 2
[5] = Inhibition of SARS-CoV-2 MPro S144A mutant; design: species or system Severe acute respiratory syndrome coronavirus 2
[6] = Inhibition of SARS-CoV-2 MPro A173 V mutant; design: species or system Severe acute respiratory syndrome coronavirus 2
[7] = Inhibition of SARS-CoV-2 MPro deltaP168 mutant; design: species or system Severe acute respiratory syndrome coronavirus 2
[8] = Inhibition of SARS-CoV-2 MPro S144M mutant; design: species or system Severe acute respiratory syndrome coronavirus 2
[9] = Inhibition of SARS-CoV-2 MPro Q189E mutant; design: species or system Severe acute respiratory syndrome coronavirus 2
[10] = Inhibition of SARS-CoV-2 MPro H172F mutant; design: species or system Severe acute respiratory syndrome coronavirus 2
[11] = Inhibition of SARS-CoV-2 MPro E166 V mutant; design: species or system Severe acute respiratory syndrome coronavirus 2
[12] = Inhibition of SARS-CoV-2 MPro G143S mutant; design: species or system Severe acute respiratory syndrome coronavirus 2
[13] = Inhibition of SARS-CoV-2 MPro Q192S mutant; design: species or system Severe acute respiratory syndrome coronavirus 2
[14] = Inhibition of SARS-CoV-2 MPro H172Q mutant; design: species or system Severe acute respiratory syndrome coronavirus 2
[15] = Inhibition of SARS-CoV-2 MPro H172Y mutant; design: species or system Severe acute respiratory syndrome coronavirus 2
[16] = Inhibition of SARS-CoV-2 MPro S144G mutant; design: species or system Severe acute respiratory syndrome coronavirus 2
[17] = tested on: Severe acute respiratory syndrome coronavirus 2; assay: Selectivity index, ratio of IC50 for inhibition of SARS-CoV-2 MPro deltaP168 mutant to IC50 for inhibition of wild type SARS-CoV-2 MPro
[18] = tested on: Severe acute respiratory syndrome coronavirus 2; assay: Selectivity index, ratio of IC50 for inhibition of SARS-CoV-2 MPro H172Y mutant to IC50 for inhibition of wild type SARS-CoV-2 MPro
[19] = tested on: Severe acute respiratory syndrome coronavirus 2; assay: Selectivity index, ratio of IC50 for inhibition of SARS-CoV-2 MPro S144Y mutant to IC50 for inhibition of wild type SARS-CoV-2 MPro
[20] = tested on: Severe acute respiratory syndrome coronavirus 2; assay: Selectivity index, ratio of IC50 for inhibition of SARS-CoV-2 MPro H172Q mutant to IC50 for inhibition of wild type SARS-CoV-2 MPro
[21] = tested on: Severe acute respiratory syndrome coronavirus 2; assay: Selectivity index, ratio of IC50 for inhibition of SARS-CoV-2 MPro G143S mutant to IC50 for inhibition of wild type SARS-CoV-2 MPro
[22] = tested on: Severe acute respiratory syndrome coronavirus 2; assay: Selectivity index, ratio of IC50 for inhibition of SARS-CoV-2 MPro M165T mutant to IC50 for inhibition of wild type SARS-CoV-2 MPro
[23] = tested on: Severe acute respiratory syndrome coronavirus 2; assay: Selectivity index, ratio of IC50 for inhibition of SARS-CoV-2 MPro L50F/E166A/L167F mutant to IC50 for inhibition of wild type SARS-CoV-2 MPro
[24] = tested on: Severe acute respiratory syndrome coronavirus 2; assay: Selectivity index, ratio of IC50 for inhibition of SARS-CoV-2 MPro Q189E mutant to IC50 for inhibition of wild type SARS-CoV-2 MPro
[25] = tested on: Severe acute respiratory syndrome coronavirus 2; assay: Selectivity index, ratio of IC50 for inhibition of SARS-CoV-2 MPro S144F mutant to IC50 for inhibition of wild type SARS-CoV-2 MPro
[26] = tested on: Severe acute respiratory syndrome coronavirus 2; assay: Selectivity index, ratio of IC50 for inhibition of SARS-CoV-2 MPro S144G mutant to IC50 for inhibition of wild type SARS-CoV-2 MPro
[27] = tested on: Severe acute respiratory syndrome coronavirus 2; assay: Selectivity index, ratio of IC50 for inhibition of SARS-CoV-2 MPro H172F mutant to IC50 for inhibition of wild type SARS-CoV-2 MPro
[28] = tested on: Severe acute respiratory syndrome coronavirus 2; assay: Selectivity index, ratio of IC50 for inhibition of SARS-CoV-2 MPro A173 V mutant to IC50 for inhibition of wild type SARS-CoV-2 MPro
[29] = tested on: Severe acute respiratory syndrome coronavirus 2; assay: Selectivity index, ratio of IC50 for inhibition of SARS-CoV-2 MPro Q192S mutant to IC50 for inhibition of wild type SARS-CoV-2 MPro
[30] = tested on: Severe acute respiratory syndrome coronavirus 2; assay: Selectivity index, ratio of IC50 for inhibition of SARS-CoV-2 MPro S144A mutant to IC50 for inhibition of wild type SARS-CoV-2 MPro
[31] = tested on: Severe acute respiratory syndrome coronavirus 2; assay: Selectivity index, ratio of IC50 for inhibition of SARS-CoV-2 MPro E166 V mutant to IC50 for inhibition of wild type SARS-CoV-2 MPro
[32] = tested on: Severe acute respiratory syndrome coronavirus 2; assay: Selectivity index, ratio of IC50 for inhibition of SARS-CoV-2 MPro S144M mutant to IC50 for inhibition of wild type SARS-CoV-2 MPro

Row | Compound | IC50 [1] [nM] | IC50 [2] [nM] | IC50 [3] [nM] | IC50 [4] [nM] | IC50 [5] [nM] | IC50 [6] [nM] | IC50 [7] [nM] | IC50 [8] [nM] | IC50 [9] [nM] | IC50 [10] [nM] | IC50 [11] [nM] | IC50 [12] [nM] | IC50 [13] [nM] | IC50 [14] [nM] | IC50 [15] [nM] | IC50 [16] [nM] | other results
1 | CC(C)(C)[C@H](NC(=O)C(F)(F)F)C(=O)N1C[C@H]2[C@@H]([C@H]1C(=O)N[C@H](C#N)C[C@@H]1CCNC1=O)C2(C)C | 512 | 176 | 181 | 203 | 41.7 | 85.5 | 47 | 426 | 199 | 1700 | 2620 |  |  |  |  |  | 
2 | C=CC(=O)[C@H](Cc1ccccc1)NC(=O)[C@H](CC(C)C)NC(=O)COc1ccc(Cl)cc1Cl | 392 | 636 | 1390 | 497 | 328 | 140 | 368 | 745 | 714 | 313 | 409 | 230 | 488 | 390 | 1280 | 472 | 
3 | C=CC(=O)[C@H](Cc1cccc(Cl)c1)NC(=O)[C@H](CC(C)C)NC(=O)CSc1ccccc1 | 239 | 219 | 260 | 244 | 42.5 | 82.4 | 65.4 | 414 | 211 | 146 | 236 | 155 | 261 | 159 | 297 | 254 | Ratio IC50 [17]: 5.6; Ratio IC50 [18]: 25.4; Ratio IC50 [19]: 20.9; Ratio IC50 [20]: 13.6; Ratio IC50 [21]: 13.2; Ratio IC50 [22]: 22.2; Ratio IC50 [23]: 20.4; Ratio IC50 [24]: 18; Ratio IC50 [25]: 18.7; Ratio IC50 [26]: 21.7; Ratio IC50 [27]: 12.5; Ratio IC50 [28]: 7; Ratio IC50 [29]: 22.3; Ratio IC50 [30]: 3.6; Ratio IC50 [31]: 20.2; Ratio IC50 [32]: 35.4
